Patent US6916834B2, “Preparations and use of an Ah receptor ligand, 2-(1′H-indole-3′-carbonyl)-thiazole-4-carboxylic acid methyl ester” (Wisconsin Alumni Research Foundation, priority 2001, dated 2005)
Each block holds one molecule with its values, some of them ahead of it.

Experiments:
[1] = molecular target: T1, Ah receptor (Mus musculus, UniProt P30561); test: AhR ligand activity assay (luciferase reporter gene, H1L1.1C2 ligand reporting cells); assay type: cell-based
T1 construct: endogenous in cells; host or cells: H1L1.1C2 AhR ligand reporting cells
T1 sequence (P30561 10-848): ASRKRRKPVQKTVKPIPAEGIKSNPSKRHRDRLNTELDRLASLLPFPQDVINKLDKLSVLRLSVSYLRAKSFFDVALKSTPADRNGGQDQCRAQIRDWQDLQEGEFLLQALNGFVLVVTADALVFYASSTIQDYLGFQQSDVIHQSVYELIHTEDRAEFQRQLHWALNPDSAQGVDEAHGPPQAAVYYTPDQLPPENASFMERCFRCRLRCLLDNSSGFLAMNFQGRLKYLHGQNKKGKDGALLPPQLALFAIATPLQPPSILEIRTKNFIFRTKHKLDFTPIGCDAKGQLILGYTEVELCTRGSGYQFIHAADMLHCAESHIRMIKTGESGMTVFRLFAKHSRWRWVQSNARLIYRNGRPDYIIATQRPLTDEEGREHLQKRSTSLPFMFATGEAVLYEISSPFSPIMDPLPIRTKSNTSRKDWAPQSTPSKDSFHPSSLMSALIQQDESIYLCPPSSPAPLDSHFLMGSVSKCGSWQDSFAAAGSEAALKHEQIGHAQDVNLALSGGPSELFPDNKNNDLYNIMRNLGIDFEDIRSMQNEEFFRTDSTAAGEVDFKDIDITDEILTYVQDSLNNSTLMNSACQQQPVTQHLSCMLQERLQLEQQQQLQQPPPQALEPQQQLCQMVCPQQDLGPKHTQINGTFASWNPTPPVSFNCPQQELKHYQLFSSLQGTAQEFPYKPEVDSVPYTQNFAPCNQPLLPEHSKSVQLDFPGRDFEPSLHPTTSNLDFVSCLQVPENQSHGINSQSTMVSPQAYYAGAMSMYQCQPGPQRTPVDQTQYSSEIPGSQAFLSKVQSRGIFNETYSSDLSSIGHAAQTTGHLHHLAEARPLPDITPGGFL
Procedure: The ligand activity is determined most preferably by an activity assay described below. In brief, the ligand extracts are added to Ah receptor-containing ligand reporter cells. These cells are then incubated for 4 hours and the cells are lysed to release the formed luciferase. This enzyme typically is measured according to the kit sold by Promega (Madison, Wis., USA.). Luciferase activity is measured by light emission recorded by a luminometer. The luminometer readings are taken after a substrate solution is injected into a well.
The cell line H1L1.1C2 was maintained in a culture medium (DMEM+10% FBS) with G418 at a concentration of 400 μg/ml and incubated under an atmosphere of 37° C., 6% CO2, and 100% humidity. A 96 well sterile cell culture plate with about 30,000 cells per well in 200 μl of the culture medium without G418 was prepared and incubated for at least 12 hours before being dosed for ligand activity assay.
The solvents from the ligand activities were evaporated and the activities were reconstituted in DMSO and 1 μl of this solution was used to dose the ligand reporting cells in a well with 200 μl of culture medium. One row of the reporting cells in each assay plate was dosed with 1 μl of the DMSO solutions of a set of βNF standards to generate a standard dose response curve. The dosed cells were incubated for 6 hours under the same environment as they were maintained. The cells were washed twice with a 1×PBS (pH 6.9) after the incubation and the culture wells were scanned under an inverted microscope to detect any obvious cell number change due to dosing. The cells were lysed by adding 50 μl of a 1×cell lysis reagent (Promega, Madison, Wis., USA) and 10 μl of the lysate from each well were transferred into a corresponding well of a Microlite 2 plate (Dynex Technologies Inc., Chantilly, Va., USA) for luminometer reading. A MLX Microtiter Plate Luminometer (Dynex Technologies Inc.) was programmed to inject 50 μl of a luciferase substrate solution (Promega) into a well, read the light intensities in Relative Light Units (RLU's) generated by the luciferase reaction for 5 seconds after a one second delay following the injection, and take the average of the 5 second readings as a final RLU.
Dose response curves of RLU's vs. doses of βNF standards (ng in each assay well) from each plate were plotted and the RLU's generated by the samples were converted into βNF equivalent (BEQ) as ligand activity by consulting the βNF dose response curve generated from the same plate. Data were reported as ligand activity (in BEQ) vs. treatments or fractions from a purification procedure.

[2] = molecular target: T1, Ah receptor; test: Reduction with NaBH4, phases assayed for biological activity; assay type: cell-based; conditions: saturated NaBH4 in ethanol, overnight, room temperature; data not shown
Procedure: Specified quantity of the compound was pipetted into a glass via for reaction and the solvents were evaporated. A saturated solution (100 μl) of NaBH4 in ethanol (200 proof, Aaper Alcohol and Chemical Co. Shelbyville, Ky., U.S.A.) was added to each reaction tube. The mixture was incubated overnight at room temperature and stopped by adding 200 μl of water. The reactions were extracted with 200 μl of chloroform twice and the chloroform phases were pooled. The solvents from both aqueous and chloroform phases were evaporated and both phases were assayed for biological activities. The chloroform phase was analyzed with electron impact mass spectroscopy as was a blank treated identically but containing no isolate.

[3] = Solubility and stability characterisation of the ligand preparation; assay type: physicochemical
Procedure: The preferred ligand preparation described below can be characterized by its solubility. The ligand is extractable from tissue by 80% methanol/20% water. After the boiling and acid treatment, the ligand is extractable in chloroform.
The ligand preparation is unstable in base but stable in up to two normal acid for at least 24 hours. The preparation is stable to heating at 37° C. overnight (16 hours) and at 100° C. for 24 hours.

[4] = molecular target: T1, Ah receptor; test: Base hydrolysis and methylation, products assayed for biological activity; assay type: cell-based; conditions: same manipulations as for the ligand
Procedure: To 2 μl of methanol with 3 ng BEQ of the sample, 38 μl of methanol of 10 μl of a 0.5 mm KOH in water were added and mixed. The reaction was incubated at 37° C. for 2 hours and stopped by adding 10 μl of 0.5 mmolar HCl in water to bring pH to around 5.0. To the reaction mix, 30 μl of water, 10 μl of methanol, and 50 μl of chloroform were added and mixed. The chloroform phase was separated and kept after centrifugation of the mixture. The chloroform extraction was repeated and the two chloroform phases were pooled. The chloroform phase was split into two parts, one for biological assay and the other for methylation. The same manipulations were performed for 3 ng of βNF in 2 μl of methanol and 2 μl of methanol as controls.
The solvents were evaporated and the products were assayed side by side with the hydrolysis products without methylation.

[5] = molecular target: T1, Ah receptor; test: Heat treatment followed by ligand activity assay; assay type: cell-based; conditions: 100° C. water bath, 30 minutes
Procedure: The methanolic extracts either in methanol or DMSO in a cleaned glass vials were heated in a 100° C. water bath for 30 minutes and the vials were cooled to room temperature. The extracts in the solvents were directly assayed as they were to determine the activities.

[6] = molecular target: T1, Ah receptor; test: Base treatment followed by ligand activity assay; assay type: cell-based; conditions: 0.1 N KOH, 37° C., overnight
Procedure: An aliquot of methanolic extracts of about 4 ng BEQ was transferred into a cleaned glass vial and the solvents were evaporated. A solution (200 ul) of 0.1 N KOH in water was added into the vial. The vials were incubated at 37° C. overnight. After the incubation, the tubes were cooled down and neutralized slowly with HCl. The treatment mixtures were extracted with 200 μl of chloroform. Chloroform and aqueous phases were separated and the solvents were evaporated. DMSO (10 μl) was added to each tube for activity assay. βNF and blank extracts were treated the same way as for the sample.

SMILES: COc1cc(-c2cc(=O)c3ccccc3o2)ccc1[N+](=O)[O-] [3′-methoxy-4′-nitroflavone]
antagonism of the reporter gene response to ITE ([1]; AhR antagonist, data not shown): block the reporter gene response to the compound in a dose dependent fashion

biological activity of synthetic compound compared with the isolate [1]: the same biological activity | reporter gene potency relative to βNF ([1]; dose response curves after 4 hours of incubation, FIG. 7B): about five | extractability from tissue by 80% methanol/20% water [3]: extractable | stability in base [3]: unstable | time stable in up to two normal acid [3]: at least 24 hours | stability to heating at 100° C. ([3]; 24 hours): stable | extractability in chloroform ([3]; after the boiling and acid treatment): extractable | stability to heating at 37° C. ([3]; overnight (16 hours)): stable
SMILES: COC(=O)c1csc(C(=O)c2c[nH]c3ccccc23)n1 [ITE, 2-(1′-H-indole-3′-carbonyl)-thiazole-4-carboxylic acid methyl ester]
biological activity after reduction with NaBH4 [2]: completely destroyed the biological activity

change in biological activity after hydrolysis and methylation manipulations [4]: no change | response of ligand activity to heat treatment [5]: did not respond | induction over vehicle control ([1]; 0.05 ng of βNF per assay well (200 μl medium), 96 well format): two to three | amount generating a distinguishable signal ([1]; per assay well, 96 well format): 0.01 ng | response of ligand activity to base treatment [6]: did not respond
SMILES: O=c1cc(-c2ccccc2)oc2ccc3ccccc3c12 [βNF, β-Naphthoflavone]
